Assay results reported in US20180171291A1, “DERIVATION OF ENDOTHELIAL CELLS FROM MAMMALIAN PLUIRPOTENT STEM CELLS” (THE JOHNS HOPKINS UNIVERSITY, priority 2012, published 2018).

B1: BMP4: angiogenic growth factor, bone morphogenetic protein-4 (protein, UniProt P12644 293-408, looked up)
Bone morphogenetic protein 4: SPKHHSQRARKKNKNCRRHSLYVDFSDVGWNDWIVAPPGYQAFYCHGDCPFPLADHLNSTNHAIVQTLVNSVNSSIPKACCVPTELSAISMLYLDEYDKVVLKNYQEMVVEGCGCR

Test system: hPSCs
Assay: sequential differentiation of hPSCs into endothelial cells on collagen IV, EC marker expression by flow cytometry / immunofluorescence
Type: cell-based, human
Protocol: In the inventive method, hPSCs were cultured at a concentration of 1.25×10^4 per cm^2 on collagen IV plates for 12 days. In the “direct” method, the cells were treated with VEGF for the entire time. With the “sequential” method, the cells were supplemented with 10% serum and were not treated with VEGF until day 6. See FIG. 1 for a comparison of the protocols.
In our sequential method, hPSCs were cultured on collagen IV plates in media supplemented with 10% serum. After 6 days in culture, cells were strained and re-cultured in media supplemented with 50 ng/ml vascular endothelial growth factor (VEGF). Cells which were differentiated via direct means were cultured in the VEGF-supplemented media for all 12 days. EC markers were examined via immunofluorescence microscopy and flow cytometry. We tested hESC line, H9, as well as hiPSC line, MR31, which was derived from normal, fetal fibroblasts using three factors, Oct-4, Sox2, Klf4 (8, 9).
However, because sequentially-derived cells were only ˜5% VEcad+, we sought to improve upon the differentiation efficiency via biochemical means. To this end, we studied the addition of a TGFβ inhibitor, SB431542 (10) as well as angiogenic growth factors, bone morphogenetic protein-4 (BMP4) and Indian Hedgehog (lhh). For our TGFβ inhibitor studies, we examined the effects of SB431542 in the second half of differentiation plus high (50 ng/ml) or low (1 ng/ml) VEGF. […] Remarkably, VEcad expression increased regardless of high or low VEGF concentrations. […] Cells expressed approximately 1% Tra-1-60 indicating they were fully differentiated.

[1] = added in the second half of sequential differentiation plus VEGF, 12 days in culture

Row | Molecule | Expression of CD31 [1] | Expression of KDR [1] | expression of mature EC marker, VEcad (added in the second half of sequential differentiation plus high (50 ng/ml) or low (1 ng/ml) VEGF, 12 days in culture) | endothelial differentiation capacity (compared with levels seen with SB431542 supplementation)
1 | NC(=O)c1ccc(-c2nc(-c3ccc4c(c3)OCO4)c(-c3ccccn3)[nH]2)cc1 [SB431542] | increased | increased | dramatic increase | 
2 | B1 |  |  |  | not able to augment
